Experimental data from ChEMBL document CHEMBL4011612, “4-Anilino-pyrimidine, novel aldosterone synthase (CYP11B2) inhibitors bearing pyrimidine structures” (Bioorg Med Chem Lett, 2017).
≈ marks a conversion by molar mass, not a printed value. Calls of active or inactive are those of the source. The calls are words filed in the database; no cut-off is given here.

Key:
[1] = target: T1, Cytochrome P450 11B2, mitochondrial (Homo sapiens, UniProt P19099)
T1 sequence (P19099 whole entry): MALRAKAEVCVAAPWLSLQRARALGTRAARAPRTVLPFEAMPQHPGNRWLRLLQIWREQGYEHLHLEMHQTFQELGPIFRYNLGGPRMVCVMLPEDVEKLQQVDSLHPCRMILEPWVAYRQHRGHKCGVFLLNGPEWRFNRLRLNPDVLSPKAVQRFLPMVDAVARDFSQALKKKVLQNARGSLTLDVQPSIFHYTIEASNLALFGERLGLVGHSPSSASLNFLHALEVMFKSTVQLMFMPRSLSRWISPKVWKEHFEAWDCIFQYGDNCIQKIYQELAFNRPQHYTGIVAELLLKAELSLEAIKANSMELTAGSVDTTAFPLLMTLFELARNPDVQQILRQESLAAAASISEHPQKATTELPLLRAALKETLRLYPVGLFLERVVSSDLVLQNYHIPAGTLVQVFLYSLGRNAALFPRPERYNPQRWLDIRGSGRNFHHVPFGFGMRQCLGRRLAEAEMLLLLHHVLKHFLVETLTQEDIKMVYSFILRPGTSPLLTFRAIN
Description: Inhibition of human CYP11B2 expressed in HEK293A cells using deoxycorticosterone as substrate pretreated for 1 hr followed by substrate addition measured after 1 hr by HTRF assay

[2] = target: T2, Cytochrome P450 11B2, mitochondrial (Mus musculus, UniProt P15539)
T2 sequence (P15539 whole entry): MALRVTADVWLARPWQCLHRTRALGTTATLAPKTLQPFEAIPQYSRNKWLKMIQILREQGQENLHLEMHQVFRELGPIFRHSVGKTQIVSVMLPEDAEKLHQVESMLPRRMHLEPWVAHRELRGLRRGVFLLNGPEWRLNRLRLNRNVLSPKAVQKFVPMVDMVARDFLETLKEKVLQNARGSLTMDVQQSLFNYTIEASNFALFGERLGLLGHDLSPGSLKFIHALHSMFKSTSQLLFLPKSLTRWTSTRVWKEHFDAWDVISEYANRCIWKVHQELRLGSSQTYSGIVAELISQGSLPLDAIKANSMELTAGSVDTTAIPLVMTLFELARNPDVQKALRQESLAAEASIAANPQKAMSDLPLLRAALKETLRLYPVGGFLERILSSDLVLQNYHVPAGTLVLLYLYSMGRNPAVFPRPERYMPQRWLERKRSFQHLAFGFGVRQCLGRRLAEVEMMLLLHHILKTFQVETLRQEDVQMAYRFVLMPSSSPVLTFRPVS
Description: Inhibition of mouse CYP11B2 expressed in HEK293 cells using deoxycorticosterone as substrate pretreated for 1 hr followed by substrate addition after 2 hrs by HTRF assay

[3] = target: T3, Cytochrome P450 11B1, mitochondrial (Homo sapiens, UniProt P15538); assay: Inhibition of human CYP11B1 expressed in HEK293A cells; type: ADME, cell-based, HEK293
T3 sequence (P15538 whole entry): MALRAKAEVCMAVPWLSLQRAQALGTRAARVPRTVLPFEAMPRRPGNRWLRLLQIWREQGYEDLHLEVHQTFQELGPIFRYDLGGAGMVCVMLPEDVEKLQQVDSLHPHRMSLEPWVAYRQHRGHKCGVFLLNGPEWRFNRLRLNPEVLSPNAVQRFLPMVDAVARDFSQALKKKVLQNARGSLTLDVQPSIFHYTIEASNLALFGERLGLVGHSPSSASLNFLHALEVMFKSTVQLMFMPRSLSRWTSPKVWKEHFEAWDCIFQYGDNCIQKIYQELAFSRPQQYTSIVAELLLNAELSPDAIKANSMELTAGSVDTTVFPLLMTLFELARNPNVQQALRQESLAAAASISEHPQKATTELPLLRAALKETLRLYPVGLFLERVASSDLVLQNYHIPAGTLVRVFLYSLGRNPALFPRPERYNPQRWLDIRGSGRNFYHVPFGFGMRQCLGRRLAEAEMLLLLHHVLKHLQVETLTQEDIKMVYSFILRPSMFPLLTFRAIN

[4] = tested on: Liver; assay: Metabolic stability in human liver microsomes; type: ADME, microsome
[5] = Solubility of the compound at pH 6.8; type: physicochemical; conditions: buffer
[6] = Half life in cynomolgus monkey at 3 mg/kg, po administered as single dose; type: ADME, organism-based, Macaca fascicularis; conditions: in vivo
[7] = target: CYP3A4 (Homo sapiens, UniProt P08684); assay: Inhibition of CYP3A4 (unknown origin) at 10 uM
[8] = target: T4, CYP19 (aromatase) (Homo sapiens, UniProt P11511); assay: Inhibition of CYP19 (unknown origin) at 1 uM
T4 sequence (P11511 whole entry): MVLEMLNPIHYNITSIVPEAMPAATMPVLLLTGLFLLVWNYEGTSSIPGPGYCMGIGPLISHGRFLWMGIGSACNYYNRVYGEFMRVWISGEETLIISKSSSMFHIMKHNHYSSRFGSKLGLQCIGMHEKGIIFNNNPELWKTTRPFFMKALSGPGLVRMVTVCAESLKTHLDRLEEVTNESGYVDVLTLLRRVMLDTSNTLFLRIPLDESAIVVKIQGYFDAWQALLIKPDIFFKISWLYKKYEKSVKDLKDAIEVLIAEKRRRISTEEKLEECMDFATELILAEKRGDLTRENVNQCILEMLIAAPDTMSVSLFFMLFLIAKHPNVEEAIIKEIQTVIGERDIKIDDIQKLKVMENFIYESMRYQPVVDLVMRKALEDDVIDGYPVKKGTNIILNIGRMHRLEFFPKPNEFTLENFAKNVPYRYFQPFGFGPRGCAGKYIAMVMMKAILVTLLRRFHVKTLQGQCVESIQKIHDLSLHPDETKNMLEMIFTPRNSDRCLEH

[9] = Solubility of the compound at pH 1.2; type: physicochemical; conditions: buffer
[10] = Total AUC in cynomolgus monkey at 3 mg/kg, po administered as single dose; type: ADME, organism-based, Macaca fascicularis; set-up: dose 3 mg/kg, time AUCmax, route oral; conditions: in vivo
[11] = target: CYP2C9 (Homo sapiens, UniProt P11712); assay: Inhibition of CYP2C9 (unknown origin) at 10 uM; type: ADME
[12] = Plasma protein binding in mouse; type: ADME, cell-free; conditions: read-out: PPB (converted)
[13] = Cmax in cynomolgus monkey at 3 mg/kg, po administered as single dose; type: ADME, organism-based, Macaca fascicularis; set-up: dose 3 mg/kg, route oral; conditions: in vivo
[14] = Tmax in cynomolgus monkey at 3 mg/kg, po administered as single dose; type: ADME, organism-based, Macaca fascicularis; conditions: in vivo
[15] = target: T5, CYP1A2 (Homo sapiens, UniProt P05177); assay: Inhibition of CYP1A2 (unknown origin) at 10 uM; type: ADME
T5 sequence (P05177 whole entry): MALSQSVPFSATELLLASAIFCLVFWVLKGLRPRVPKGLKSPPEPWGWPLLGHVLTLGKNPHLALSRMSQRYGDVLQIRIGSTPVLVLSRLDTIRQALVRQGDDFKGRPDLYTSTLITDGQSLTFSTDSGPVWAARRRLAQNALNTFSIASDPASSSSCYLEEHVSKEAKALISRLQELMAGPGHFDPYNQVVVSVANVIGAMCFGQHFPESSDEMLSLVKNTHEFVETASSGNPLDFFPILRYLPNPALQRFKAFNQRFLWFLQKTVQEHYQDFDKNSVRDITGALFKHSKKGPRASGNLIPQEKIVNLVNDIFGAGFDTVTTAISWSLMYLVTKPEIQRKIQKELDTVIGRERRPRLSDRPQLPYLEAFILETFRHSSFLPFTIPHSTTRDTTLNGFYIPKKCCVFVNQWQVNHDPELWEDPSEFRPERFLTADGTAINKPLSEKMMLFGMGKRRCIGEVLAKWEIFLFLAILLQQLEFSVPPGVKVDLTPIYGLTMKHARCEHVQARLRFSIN

[16] = target: CYP2D6 (Homo sapiens, UniProt P10635); assay: Inhibition of CYP2D6 (unknown origin) at 10 uM; type: ADME
[17] = Inhibition of monkey CYP11B2; set-up: species or system Macaca mulatta
[18] = target: T6, Cytochrome P450 11B2, mitochondrial (Rattus norvegicus, UniProt P30099); assay: Inhibition of rat CYP11B2
T6 sequence (P30099 whole entry): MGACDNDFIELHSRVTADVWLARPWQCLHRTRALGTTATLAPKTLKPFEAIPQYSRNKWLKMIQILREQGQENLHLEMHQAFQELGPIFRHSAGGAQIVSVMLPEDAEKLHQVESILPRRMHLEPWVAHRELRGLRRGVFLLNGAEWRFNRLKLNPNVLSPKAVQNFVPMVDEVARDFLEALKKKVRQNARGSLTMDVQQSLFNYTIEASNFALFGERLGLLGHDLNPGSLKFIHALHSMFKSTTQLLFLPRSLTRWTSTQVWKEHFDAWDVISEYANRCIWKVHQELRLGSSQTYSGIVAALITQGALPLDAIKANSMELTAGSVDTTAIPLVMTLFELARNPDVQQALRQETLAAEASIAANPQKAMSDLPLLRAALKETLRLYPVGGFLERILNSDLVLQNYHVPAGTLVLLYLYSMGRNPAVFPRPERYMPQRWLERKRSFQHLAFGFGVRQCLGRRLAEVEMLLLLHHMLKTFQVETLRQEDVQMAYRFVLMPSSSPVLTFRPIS

[19] = tested on: Cynomolgus monkey; assay: Decrease in plasma aldosterone level in furosemide-induced cynomolgus monkey at 3 mg/kg, po administered as single dose by radioimmunoassay; type: functional, organism-based; conditions: Macaca fascicularis

CYP2C9, sequence (P11712 whole entry): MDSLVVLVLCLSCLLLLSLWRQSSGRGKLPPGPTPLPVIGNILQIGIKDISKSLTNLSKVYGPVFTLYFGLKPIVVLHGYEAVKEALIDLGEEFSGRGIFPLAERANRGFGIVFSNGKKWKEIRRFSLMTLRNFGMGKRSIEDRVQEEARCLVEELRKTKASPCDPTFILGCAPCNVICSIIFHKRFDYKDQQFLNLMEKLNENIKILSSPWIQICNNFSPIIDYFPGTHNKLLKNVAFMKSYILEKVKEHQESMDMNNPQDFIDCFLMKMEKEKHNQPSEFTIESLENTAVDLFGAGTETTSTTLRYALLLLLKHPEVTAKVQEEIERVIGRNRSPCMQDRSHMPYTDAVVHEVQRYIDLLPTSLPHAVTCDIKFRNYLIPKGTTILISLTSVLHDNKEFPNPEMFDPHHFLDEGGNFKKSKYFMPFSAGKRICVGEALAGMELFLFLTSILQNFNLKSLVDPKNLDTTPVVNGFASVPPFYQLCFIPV
CYP3A4, sequence (P08684 whole entry): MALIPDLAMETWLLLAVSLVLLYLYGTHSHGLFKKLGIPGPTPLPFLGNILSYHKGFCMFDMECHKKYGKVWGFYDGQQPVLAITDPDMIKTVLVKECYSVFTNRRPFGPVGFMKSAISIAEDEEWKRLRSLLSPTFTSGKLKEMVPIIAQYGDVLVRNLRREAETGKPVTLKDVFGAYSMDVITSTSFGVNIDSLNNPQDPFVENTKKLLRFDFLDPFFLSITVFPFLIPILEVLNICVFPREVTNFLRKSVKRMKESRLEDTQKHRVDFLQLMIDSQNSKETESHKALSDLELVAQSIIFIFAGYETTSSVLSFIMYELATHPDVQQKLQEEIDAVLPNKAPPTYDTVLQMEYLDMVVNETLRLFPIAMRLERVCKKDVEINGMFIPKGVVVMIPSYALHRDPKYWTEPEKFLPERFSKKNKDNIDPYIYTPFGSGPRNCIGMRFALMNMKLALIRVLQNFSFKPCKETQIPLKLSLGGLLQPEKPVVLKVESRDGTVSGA
CYP2D6, sequence (P10635 whole entry): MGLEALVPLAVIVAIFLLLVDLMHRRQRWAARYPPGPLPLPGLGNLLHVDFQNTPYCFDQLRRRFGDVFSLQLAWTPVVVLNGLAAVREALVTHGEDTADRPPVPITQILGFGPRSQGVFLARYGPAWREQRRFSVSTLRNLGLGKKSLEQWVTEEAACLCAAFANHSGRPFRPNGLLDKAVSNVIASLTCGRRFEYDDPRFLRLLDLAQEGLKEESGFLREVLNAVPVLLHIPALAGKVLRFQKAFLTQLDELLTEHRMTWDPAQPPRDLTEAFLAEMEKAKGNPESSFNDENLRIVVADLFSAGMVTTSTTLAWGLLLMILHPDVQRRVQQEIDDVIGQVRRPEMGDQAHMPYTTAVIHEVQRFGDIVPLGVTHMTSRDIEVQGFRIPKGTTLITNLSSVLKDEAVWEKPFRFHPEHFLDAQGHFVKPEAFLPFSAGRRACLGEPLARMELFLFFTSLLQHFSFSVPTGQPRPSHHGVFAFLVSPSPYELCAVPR

| Compound | IC50 [1] [nM] | IC50 [2] [nM] | IC50 [3] [nM] | also measured |
| --- | --- | --- | --- | --- |
| CS(=O)(=O)N1CCC(O)(c2cncnc2Nc2ccc(F)cc2)CC1 | 300 | 1380 |  |  |
| OC(c1ccccc1)c1cncnc1Nc1ccc(F)cc1 (racemic) | 30 | 440 | 93 |  |
| CCCCC(O)(c1cncnc1Nc1ccc(F)cc1)C1CCN(S(C)(=O)=O)CC1 (racemic) | 48 | 170 | 124 |  |
| OC(c1cncnc1Nc1ccc(F)cc1)C1CCNCC1 (racemic) | 300 | 1310 |  |  |
| CS(=O)(=O)N1CCC(C(O)(c2cncnc2Nc2ccc(F)cc2)C(F)(F)F)CC1 (racemic) [listing 1 of 2 here] | 4 | 10 | 2 | Stability [4]: 100%; solubility [5]: 260 µg/mL (≈ 580 µM); half-life [6]: 2.31 h; inhibition at 10 µM [7]: 4.1%; inhibition at 1 µM [8]: 16%; solubility [9]: 860 µg/mL (≈ 1920 µM); AUC [10]: 3300 ng·h/mL; inhibition at 10 µM [11]: 3.4%; fraction unbound [12]: 0.185; Cmax [13]: 515 ng/mL; Tmax [14]: 2.67 h; inhibition at 10 µM [15]: < 0%; inhibition at 10 µM [16]: 5.8% |
| CS(=O)(=O)N1CCC(C(O)c2cncnc2Cc2ccccc2)CC1 (racemic) | 83 |  |  |  |
| CC(C)C(O)(c1cncnc1Nc1ccc(F)cc1)C1CCN(S(C)(=O)=O)CC1 (racemic) | 5 | 21 | 13 |  |
| CCCC(O)c1cncnc1Nc1ccc(F)cc1 (racemic) | 75 | 911 | 181 |  |
| CS(=O)(=O)N1CCC(C(O)(c2cncnc2Nc2ccc(F)cc2)C(F)(F)F)CC1 (racemic) [listing 2 of 2 here] |  |  |  | Activity [19]: Active |
| CS(=O)(=O)N1CCC(C(O)(c2cncnc2Nc2ccc(F)cc2)C(F)(F)F)CC1 (single isomer, unassigned; isomer 1) | 0.73 | 0.73 | 1.1 |  |
| CS(=O)(=O)N1CCC(C(O)(c2cncnc2Nc2ccc(F)cc2)C(F)(F)F)CC1 (single isomer, unassigned; isomer 2) | > 100 | > 100 | > 300 |  |

Further lines, with some results ahead:

| IC50 [1] [nM] | IC50 [2] [nM] | IC50 [3] [nM] | Compound | also measured |
| --- | --- | --- | --- | --- |
| 109 | 5100 |  | CS(=O)(=O)N1CCC(C(=O)c2cncnc2Nc2ccc(F)cc2)CC1 |  |
| 144 | 1470 |  | CS(=O)(=O)N1CCC(C(O)c2cncnc2Nc2ccc(F)cc2)C1 (mixture of isomers) |  |
| 8 | 2740 | 110 | CS(=O)(=O)N1CCC(C(O)c2cncnc2Nc2cccc3ccccc23)CC1 (racemic) |  |
| 14 | > 10000 |  | COc1ccc(Nc2ncncc2C(O)C2CCN(S(C)(=O)=O)CC2)cc1 (racemic) |  |
| 2 | 1340 | 11 | CS(=O)(=O)N1CCC(C(O)c2cncnc2Nc2ccc(C#N)cc2)CC1 (racemic) |  |
| 2 | 102 | 6 | CC(O)(c1cncnc1Nc1ccc(F)cc1)C1CCN(S(C)(=O)=O)CC1 (racemic) |  |
| 5 | 1100 | 13 | CS(=O)(=O)N1CCC(C(O)c2cncnc2Nc2cccc(F)c2)CC1 (racemic) |  |
| 15 | 1760 | 42 | CS(=O)(=O)N1CCC(C(O)c2cncnc2Nc2ccccc2)CC1 (racemic) |  |
| 0.4 | 257 | 0.6 | CS(=O)(=O)N1CCC(C(O)c2cncnc2Sc2ccc(F)cc2)CC1 (racemic) |  |
| 3 | 798 | 16 | CS(=O)(=O)N1CCC(C(O)c2cncnc2Nc2ccc(C(F)(F)F)cc2)CC1 (racemic) |  |
| 8 | 1890 | 19 | Cc1ccc(Nc2ncncc2C(O)C2CCN(S(C)(=O)=O)CC2)cc1 (racemic) |  |
| 3 to 3.1 | 300 to 301 | 10 | CS(=O)(=O)N1CCC(C(O)c2cncnc2Nc2ccc(F)cc2)CC1 (racemic) | IC50 [17]: 2.7 nM; IC50 [18]: 300 nM |
| 192 | 3130 |  | CS(=O)(=O)N1CCC(CC(O)c2cncnc2Nc2ccc(F)cc2)CC1 (racemic) |  |
